Results reported in article PMC6348381, “Discovery of an MLLT1/3 YEATS Domain Chemical Probe” (Angewandte Chemie (International Ed. in English), 2018).

Legend:
Assay type in all cases: binding
BAZ1A = target: T1, BAZ1A (Homo sapiens, UniProt Q9NRL2); test: Thermal shift assay, BAZ1A
T1 construct: purchased in-house (SGC bromodomain thermal shift / AlphaScreen panel)
Protocol: (§1) II.VII Thermal Shift Assay[6]
(§2) Thermal melting experiments were carried out using an Mx3005p Real Time PCR machine (Stratagene). Proteins were buffered in 10 mM HEPES pH 7.5, 500 mM NaCl and assayed in a 96-well plate at a final concentration of 2 μM in 20 μL volume. Compounds were added at a final concentration of 50 μM. SYPRO Orange (Molecular Probes) was added as a fluorescence probe at a dilution of 1:1000. Excitation and emission filters for the SYPRO-Orange dye were set to 465 nm and 590 nm, respectively. The temperature was raised with a step of 3 °C per minute from 25 °C to 96 °C and fluorescence readings were taken at each interval. The unfolding curves were fitted using the Boltzmann equation to determine the middle point of the transition.

BRD1 = target: T2, BRD1 (Homo sapiens, UniProt O95696); test: Thermal shift assay, BRD1
T2 construct: purchased in-house (SGC bromodomain thermal shift / AlphaScreen panel)
T2 sequence (O95696 1-1058): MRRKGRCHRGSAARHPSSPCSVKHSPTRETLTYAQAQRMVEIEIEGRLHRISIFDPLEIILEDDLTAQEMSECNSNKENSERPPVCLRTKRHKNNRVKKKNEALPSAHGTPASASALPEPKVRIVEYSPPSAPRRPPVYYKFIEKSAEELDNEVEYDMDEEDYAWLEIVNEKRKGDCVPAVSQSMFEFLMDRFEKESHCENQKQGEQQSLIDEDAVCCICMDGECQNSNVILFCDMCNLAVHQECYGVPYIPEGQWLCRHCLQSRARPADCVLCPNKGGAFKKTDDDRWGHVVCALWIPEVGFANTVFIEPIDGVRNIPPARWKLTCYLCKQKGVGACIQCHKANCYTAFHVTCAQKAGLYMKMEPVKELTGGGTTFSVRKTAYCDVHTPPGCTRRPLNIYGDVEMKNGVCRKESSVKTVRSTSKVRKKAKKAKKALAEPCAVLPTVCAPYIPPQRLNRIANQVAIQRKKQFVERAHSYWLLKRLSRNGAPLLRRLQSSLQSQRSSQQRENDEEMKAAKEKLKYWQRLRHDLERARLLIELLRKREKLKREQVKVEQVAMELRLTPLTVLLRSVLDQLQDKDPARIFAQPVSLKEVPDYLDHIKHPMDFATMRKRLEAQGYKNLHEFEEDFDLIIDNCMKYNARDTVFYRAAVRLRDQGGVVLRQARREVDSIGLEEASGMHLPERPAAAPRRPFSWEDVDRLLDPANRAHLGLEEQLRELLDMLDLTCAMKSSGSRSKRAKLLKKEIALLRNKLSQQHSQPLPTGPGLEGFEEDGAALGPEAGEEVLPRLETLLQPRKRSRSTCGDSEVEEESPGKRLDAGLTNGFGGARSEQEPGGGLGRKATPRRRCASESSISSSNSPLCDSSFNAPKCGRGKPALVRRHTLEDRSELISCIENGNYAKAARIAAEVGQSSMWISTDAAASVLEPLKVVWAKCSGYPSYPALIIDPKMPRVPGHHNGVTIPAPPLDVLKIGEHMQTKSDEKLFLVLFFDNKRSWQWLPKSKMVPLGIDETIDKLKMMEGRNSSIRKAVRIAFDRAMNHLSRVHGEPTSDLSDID
Protocol: as §1, §2

BRD4(2) = target: T3, BRD4(2) (Homo sapiens, UniProt O60885); test: Thermal shift assay, BRD4(2)
T3 construct: BRD4(2); purchased in-house (SGC bromodomain thermal shift / AlphaScreen panel)
Protocol: as §1, §2

BRD9 = target: T4, BRD9 (Homo sapiens, UniProt Q9H8M2); test: Thermal shift assay, BRD9
T4 construct: purchased in-house (SGC bromodomain thermal shift / AlphaScreen panel)
T4 sequence (Q9H8M2 1-597): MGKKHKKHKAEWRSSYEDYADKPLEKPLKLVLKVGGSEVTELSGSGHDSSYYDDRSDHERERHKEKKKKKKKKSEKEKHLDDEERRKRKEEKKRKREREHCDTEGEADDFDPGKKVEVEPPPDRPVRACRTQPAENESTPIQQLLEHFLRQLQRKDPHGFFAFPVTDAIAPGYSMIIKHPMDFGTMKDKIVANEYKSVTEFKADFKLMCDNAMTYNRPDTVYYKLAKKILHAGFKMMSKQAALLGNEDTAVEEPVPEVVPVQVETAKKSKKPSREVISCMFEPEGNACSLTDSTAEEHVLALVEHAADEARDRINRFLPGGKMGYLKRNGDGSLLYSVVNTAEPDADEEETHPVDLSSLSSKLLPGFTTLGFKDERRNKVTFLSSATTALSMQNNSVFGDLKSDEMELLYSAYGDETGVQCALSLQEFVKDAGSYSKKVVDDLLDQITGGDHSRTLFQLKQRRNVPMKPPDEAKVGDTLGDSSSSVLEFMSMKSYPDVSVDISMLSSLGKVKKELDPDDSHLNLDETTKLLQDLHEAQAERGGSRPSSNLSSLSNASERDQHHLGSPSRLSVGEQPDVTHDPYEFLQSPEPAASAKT
Protocol: as §1, §2

GCN5 = target: T5, GCN5 (Homo sapiens, UniProt Q92830); test: Thermal shift assay, GCN5
T5 construct: purchased in-house (SGC bromodomain thermal shift / AlphaScreen panel)
T5 sequence (Q92830 whole entry): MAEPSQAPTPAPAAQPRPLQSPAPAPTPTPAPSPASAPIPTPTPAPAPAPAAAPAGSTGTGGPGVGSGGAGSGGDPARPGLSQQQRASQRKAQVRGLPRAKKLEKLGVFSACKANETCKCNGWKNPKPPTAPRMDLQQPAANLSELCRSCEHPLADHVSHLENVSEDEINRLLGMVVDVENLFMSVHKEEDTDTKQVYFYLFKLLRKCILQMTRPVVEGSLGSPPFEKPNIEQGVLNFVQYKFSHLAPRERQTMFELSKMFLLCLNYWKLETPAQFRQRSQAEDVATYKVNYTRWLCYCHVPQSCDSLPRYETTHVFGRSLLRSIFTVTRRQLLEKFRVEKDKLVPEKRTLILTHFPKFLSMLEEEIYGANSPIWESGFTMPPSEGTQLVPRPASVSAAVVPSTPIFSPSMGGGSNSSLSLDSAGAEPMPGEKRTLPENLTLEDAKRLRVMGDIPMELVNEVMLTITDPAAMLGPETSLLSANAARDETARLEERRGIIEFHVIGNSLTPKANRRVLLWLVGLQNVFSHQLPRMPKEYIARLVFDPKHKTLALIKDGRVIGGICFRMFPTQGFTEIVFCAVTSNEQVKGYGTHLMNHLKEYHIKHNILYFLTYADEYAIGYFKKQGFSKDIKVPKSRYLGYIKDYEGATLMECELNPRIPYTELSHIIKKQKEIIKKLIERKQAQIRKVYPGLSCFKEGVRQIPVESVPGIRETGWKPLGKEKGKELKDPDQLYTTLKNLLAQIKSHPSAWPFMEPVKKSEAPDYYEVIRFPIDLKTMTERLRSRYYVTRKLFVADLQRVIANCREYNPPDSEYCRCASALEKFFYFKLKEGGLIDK
Protocol: as §1, §2

MLL = target: T6, MLL (Homo sapiens, UniProt Q03164); test: Thermal shift assay, MLL
T6 construct: purchased in-house (SGC bromodomain thermal shift / AlphaScreen panel)

PB1(2) = target: T7, PB1(2) (Homo sapiens, UniProt Q86U86); test: Thermal shift assay, PB1(2)
T7 construct: PB1(2); purchased in-house (SGC bromodomain thermal shift / AlphaScreen panel)
T7 sequence (Q86U86 178-291 limits assumed): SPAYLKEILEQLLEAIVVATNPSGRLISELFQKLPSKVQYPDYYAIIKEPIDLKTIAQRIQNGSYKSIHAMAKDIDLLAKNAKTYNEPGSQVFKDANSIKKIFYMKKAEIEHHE

PCAF = target: T8, PCAF (Homo sapiens, UniProt Q92831); test: Thermal shift assay, PCAF
T8 construct: purchased in-house (SGC bromodomain thermal shift / AlphaScreen panel)

PHIP(2) = target: T9, PHIP(2) (Homo sapiens, UniProt Q8WWQ0); test: Thermal shift assay, PHIP(2)
T9 construct: PHIP(2); purchased in-house (SGC bromodomain thermal shift / AlphaScreen panel)
Protocol: as §1, §2

SMARCA4 = target: T10, SMARCA4 (Homo sapiens, UniProt P51532); test: Thermal shift assay, SMARCA4
T10 construct: purchased in-house (SGC bromodomain thermal shift / AlphaScreen panel)

SP140 = target: T11, SP140 (Homo sapiens, UniProt Q13342); test: Thermal shift assay, SP140
T11 construct: purchased in-house (SGC bromodomain thermal shift / AlphaScreen panel)
T11 sequence (Q13342 whole entry): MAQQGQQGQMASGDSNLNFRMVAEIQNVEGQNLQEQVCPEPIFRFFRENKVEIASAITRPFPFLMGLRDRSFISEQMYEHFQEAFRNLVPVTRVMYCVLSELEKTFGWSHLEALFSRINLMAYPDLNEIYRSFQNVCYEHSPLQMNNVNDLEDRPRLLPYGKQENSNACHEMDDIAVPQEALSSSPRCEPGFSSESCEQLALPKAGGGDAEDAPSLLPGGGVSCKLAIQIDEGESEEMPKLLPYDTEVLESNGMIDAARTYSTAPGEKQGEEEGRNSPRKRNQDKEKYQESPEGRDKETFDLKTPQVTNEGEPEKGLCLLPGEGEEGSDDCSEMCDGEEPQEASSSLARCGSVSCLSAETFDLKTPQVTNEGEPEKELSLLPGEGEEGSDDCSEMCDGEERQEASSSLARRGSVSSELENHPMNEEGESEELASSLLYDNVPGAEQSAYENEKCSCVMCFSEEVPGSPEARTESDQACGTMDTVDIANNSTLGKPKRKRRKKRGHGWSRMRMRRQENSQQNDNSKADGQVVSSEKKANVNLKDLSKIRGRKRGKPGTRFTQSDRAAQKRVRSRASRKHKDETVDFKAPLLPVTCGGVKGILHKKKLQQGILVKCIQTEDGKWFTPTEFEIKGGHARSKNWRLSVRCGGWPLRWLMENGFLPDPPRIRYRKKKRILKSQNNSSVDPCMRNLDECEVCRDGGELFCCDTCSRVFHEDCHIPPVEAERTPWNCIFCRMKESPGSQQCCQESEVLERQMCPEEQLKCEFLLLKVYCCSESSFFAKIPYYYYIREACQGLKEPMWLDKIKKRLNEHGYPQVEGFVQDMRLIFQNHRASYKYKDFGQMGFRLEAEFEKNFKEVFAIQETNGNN
Protocol: as §1, §2

TRIM33B = target: T12, TRIM33B (Homo sapiens, UniProt Q9UPN9); test: Thermal shift assay, TRIM33B
T12 construct: Bromosporine with recombinant human bromodomain proteins; made in house
T12 sequence (Q9UPN9 957-1063 isoform Q9UPN9-2 limits assumed): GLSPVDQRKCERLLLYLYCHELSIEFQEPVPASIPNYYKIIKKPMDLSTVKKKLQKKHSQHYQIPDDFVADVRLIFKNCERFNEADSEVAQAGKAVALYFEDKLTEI
Protocol: as §1, §2

CECR2 = CECR2 (Homo sapiens, UniProt Q9BXF3); test: Thermal shift assay, CECR2; parameters: purchased in-house (SGC bromodomain thermal shift / AlphaScreen panel)
Chain of CECR2 (Q9BXF3 whole entry): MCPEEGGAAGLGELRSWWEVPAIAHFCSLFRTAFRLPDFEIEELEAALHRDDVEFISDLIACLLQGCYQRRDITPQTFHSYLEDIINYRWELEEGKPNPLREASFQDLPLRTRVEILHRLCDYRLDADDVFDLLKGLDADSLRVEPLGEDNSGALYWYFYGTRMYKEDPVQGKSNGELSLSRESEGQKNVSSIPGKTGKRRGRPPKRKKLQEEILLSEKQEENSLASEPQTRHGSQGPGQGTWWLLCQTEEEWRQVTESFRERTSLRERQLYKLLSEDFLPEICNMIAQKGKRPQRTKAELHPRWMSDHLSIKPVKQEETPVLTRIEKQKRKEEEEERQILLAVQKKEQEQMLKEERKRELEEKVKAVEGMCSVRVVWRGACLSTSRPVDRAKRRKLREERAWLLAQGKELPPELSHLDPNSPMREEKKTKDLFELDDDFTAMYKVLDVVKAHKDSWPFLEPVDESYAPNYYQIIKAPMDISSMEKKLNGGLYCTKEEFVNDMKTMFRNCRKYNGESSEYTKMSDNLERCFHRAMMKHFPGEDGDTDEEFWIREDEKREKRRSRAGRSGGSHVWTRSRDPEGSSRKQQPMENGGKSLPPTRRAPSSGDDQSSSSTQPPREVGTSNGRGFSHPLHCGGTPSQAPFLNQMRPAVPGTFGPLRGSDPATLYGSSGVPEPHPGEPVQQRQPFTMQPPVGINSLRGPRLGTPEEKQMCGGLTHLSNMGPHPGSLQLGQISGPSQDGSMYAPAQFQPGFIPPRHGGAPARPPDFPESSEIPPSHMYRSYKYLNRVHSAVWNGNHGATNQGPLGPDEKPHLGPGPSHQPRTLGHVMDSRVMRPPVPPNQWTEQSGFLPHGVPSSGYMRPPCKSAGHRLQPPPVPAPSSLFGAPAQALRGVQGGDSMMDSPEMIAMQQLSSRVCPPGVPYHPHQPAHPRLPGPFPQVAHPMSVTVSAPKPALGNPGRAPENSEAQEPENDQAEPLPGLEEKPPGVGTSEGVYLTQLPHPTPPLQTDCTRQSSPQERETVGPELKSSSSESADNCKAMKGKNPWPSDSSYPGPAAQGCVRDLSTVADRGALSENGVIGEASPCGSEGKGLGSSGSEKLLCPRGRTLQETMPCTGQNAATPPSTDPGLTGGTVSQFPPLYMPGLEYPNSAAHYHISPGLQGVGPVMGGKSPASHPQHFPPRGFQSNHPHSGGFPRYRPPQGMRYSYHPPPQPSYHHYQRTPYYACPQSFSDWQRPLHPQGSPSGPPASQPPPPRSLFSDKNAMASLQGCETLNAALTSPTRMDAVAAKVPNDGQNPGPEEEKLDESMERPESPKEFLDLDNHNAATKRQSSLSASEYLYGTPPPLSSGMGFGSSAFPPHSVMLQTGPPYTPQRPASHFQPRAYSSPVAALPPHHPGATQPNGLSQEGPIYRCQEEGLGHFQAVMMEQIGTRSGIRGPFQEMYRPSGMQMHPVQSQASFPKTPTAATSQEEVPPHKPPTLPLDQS

T1 sequence (Q9NRL2 whole entry): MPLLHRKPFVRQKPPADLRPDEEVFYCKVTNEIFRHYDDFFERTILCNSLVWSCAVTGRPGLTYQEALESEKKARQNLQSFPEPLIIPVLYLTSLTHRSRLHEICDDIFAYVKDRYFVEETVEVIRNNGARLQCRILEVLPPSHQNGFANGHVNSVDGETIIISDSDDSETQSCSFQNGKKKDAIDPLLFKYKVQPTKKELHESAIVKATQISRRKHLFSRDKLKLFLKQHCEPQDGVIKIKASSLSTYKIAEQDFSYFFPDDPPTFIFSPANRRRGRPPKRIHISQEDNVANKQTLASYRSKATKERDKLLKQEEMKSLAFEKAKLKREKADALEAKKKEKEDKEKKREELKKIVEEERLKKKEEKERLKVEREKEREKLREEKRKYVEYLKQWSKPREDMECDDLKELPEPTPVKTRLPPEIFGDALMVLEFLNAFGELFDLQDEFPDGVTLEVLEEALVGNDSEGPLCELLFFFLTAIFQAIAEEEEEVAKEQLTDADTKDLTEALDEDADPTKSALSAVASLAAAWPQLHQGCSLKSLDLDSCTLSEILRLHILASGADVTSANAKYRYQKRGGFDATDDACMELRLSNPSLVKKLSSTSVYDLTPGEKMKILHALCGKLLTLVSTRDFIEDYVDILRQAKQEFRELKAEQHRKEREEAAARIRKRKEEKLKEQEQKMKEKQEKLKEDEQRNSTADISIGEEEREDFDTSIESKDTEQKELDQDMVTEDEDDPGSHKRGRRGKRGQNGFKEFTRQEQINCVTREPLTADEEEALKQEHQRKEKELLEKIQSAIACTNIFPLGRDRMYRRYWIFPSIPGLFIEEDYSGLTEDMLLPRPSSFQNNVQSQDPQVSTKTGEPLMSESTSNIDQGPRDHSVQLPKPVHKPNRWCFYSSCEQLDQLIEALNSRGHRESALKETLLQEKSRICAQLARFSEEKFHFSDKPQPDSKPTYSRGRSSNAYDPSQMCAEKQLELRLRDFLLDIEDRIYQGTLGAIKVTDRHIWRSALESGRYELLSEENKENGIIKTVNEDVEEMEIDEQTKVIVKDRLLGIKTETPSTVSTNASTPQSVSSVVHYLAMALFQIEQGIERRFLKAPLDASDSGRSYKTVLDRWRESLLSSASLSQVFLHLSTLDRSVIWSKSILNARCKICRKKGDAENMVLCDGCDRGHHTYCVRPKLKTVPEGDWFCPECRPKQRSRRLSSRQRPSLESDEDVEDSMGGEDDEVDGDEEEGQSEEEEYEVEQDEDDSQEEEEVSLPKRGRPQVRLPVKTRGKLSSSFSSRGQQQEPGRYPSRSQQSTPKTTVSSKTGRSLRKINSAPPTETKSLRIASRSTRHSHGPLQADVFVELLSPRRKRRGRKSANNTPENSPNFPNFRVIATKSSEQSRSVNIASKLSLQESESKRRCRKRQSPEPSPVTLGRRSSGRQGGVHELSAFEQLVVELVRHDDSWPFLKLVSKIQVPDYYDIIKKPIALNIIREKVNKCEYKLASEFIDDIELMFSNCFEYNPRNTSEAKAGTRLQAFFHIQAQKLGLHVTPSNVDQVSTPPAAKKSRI

| Structure (SMILES) | Thermal stabilisation, BAZ1A (BAZ1A; 50 μM compound) | Thermal stabilisation, BRD1 (BRD1; 50 μM compound) | Thermal stabilisation, BRD4(2) (BRD4(2); 50 μM compound) | Thermal stabilisation, BRD9 (BRD9; 50 μM compound) | Thermal stabilisation, GCN5 (GCN5; 50 μM compound) | Thermal stabilisation, MLL (MLL; 50 μM compound) | Thermal stabilisation, PB1(2) (PB1(2); 50 μM compound) | Thermal stabilisation, PCAF (PCAF; 50 μM compound) | Thermal stabilisation, PHIP(2) (PHIP(2); 50 μM compound) | Thermal stabilisation, SMARCA4 (SMARCA4; 50 μM compound) | Thermal stabilisation, SP140 (SP140; 50 μM compound) | Thermal stabilisation, TRIM33B (TRIM33B; 50 μM compound) | Thermal stabilisation, CECR2 (CECR2; 50 μM compound) | other results |
| --- | --- | --- | --- | --- | --- | --- | --- | --- | --- | --- | --- | --- | --- | --- |
| CCOC(=O)Nc1cc(-c2ccc(C)c(NS(C)(=O)=O)c2)nn2c(C)nnc12 [Bromosporine, reference compound] | – | – | – | – | – | – | – | – | – | – | – | – | – | Thermal stabilisation, BAZ1A (BAZ1A; 10 µM compound concentration): -0.77; Thermal stabilisation, BRD1 (BRD1; 10 µM compound concentration): 2.055; Thermal stabilisation, BRD4(2) (BRD4(2); 10 µM compound concentration): 6.575; Thermal stabilisation, BRD9 (BRD9; 10 µM compound concentration): 7.145; Thermal stabilisation, GCN5 (GCN5; 10 µM compound concentration): 0.925; Thermal stabilisation, MLL (MLL; 10 µM compound concentration): 0.75; Thermal stabilisation, PB1(2) (PB1(2); 10 µM compound concentration): 0.105; Thermal stabilisation, PCAF (PCAF; 10 µM compound concentration): 1.025; Thermal stabilisation, PHIP(2) (PHIP(2); 10 µM compound concentration): -2.61; Thermal stabilisation, SMARCA4 (SMARCA4; 10 µM compound concentration): 0.12; Thermal stabilisation, SP140 (SP140; 10 µM compound concentration): -1.045; Thermal stabilisation, TRIM33B (TRIM33B; 10 µM compound concentration): 0.03; Thermal stabilisation, CECR2 (CECR2; 10 µM compound concentration): 11.42 |
| COC(=O)c1ccc(C(=O)Nc2ccc3[nH]c(CN4CCCCC4)nc3c2)cc1 [Compound 1] | 1.085 | 0.2 | 0.715 | -0.915 | 0.145 | -0.18 | 0.105 | 0.895 | -0.595 | 0.135 | -0.15 | 0.02 | 1.28 | – |
| C[C@H]1CCCN1Cc1nc2cc(NC(=O)c3ccc4c(cnn4C)c3)ccc2[nH]1 [Compound 92] | -0.26 | 0.215 | 0.1 | -1.445 | -0.225 | -1.31 | -0.17 | 0.05 | -1.48 | 0.035 | -0.915 | -0.28 | 1.205 | – |
